Values after ≈ are worked out from the molar mass of the structure shown.
Assays:
[1] = Downregulation of STAT3 expression level in human T24 cells at 0.25 uM incubated for 24 hrs by Western blotting analysis relative to control; assay type: functional, T-24
[2] = Downregulation of p-BMX expression level in human T24 cells at 0.5 uM incubated for 24 hrs by Western blotting analysis relative to control; assay type: functional, T-24
T-24 [3] = test: Inhibition of cell migration in human T24 cells at 0.25 uM incubated for 24 hrs by scratch assay (reference value: 88 %); assay type: functional; details: T-24, 24 h
T-24 [4] = test: Inhibition of cell migration in human T24 cells at 0.50 uM incubated for 24 hrs by scratch assay (reference value: 88 %); assay type: functional; details: T-24, 24 h
[5] = Solubility of the compound in 5% saline and 50% PEG400; assay type: physicochemical
[6] = Antitumor activity against mouse MB49 cells implanted in male C57BL/6 mouse model assessed as tumor growth inhibition at 1 mg/kg,iv bid measured after 14 days relative to control; assay type: functional; details: MB49, 336 h, time 14 day, read-out: TGI
T-24 [7] = test: Induction in apoptosis in human T24 cells assessed as viable cells at 0.13 uM incubated for 48 hrs by Annexin V-FITC staining based flow cytometry analysis (reference value: 90.44 %); assay type: functional; details: read-out: Activity
T-24 [8] = test: Induction of cell cycle arrest in human T24 cells assessed as accumulation of cells at G1 phase at 0.25 uM incubated for 24 hrs by RNase A/Propidium Iodide staining based flow cytometry analysis (reference value: 43.80 %); assay type: functional
[9] = Toxicity in ICR mouse assessed as body weight change at 688 mg/kg, IG administered once for 14 days; assay type: organism-based; details: in vivo, po, 336 h, time 14 day
[10] = Downregulation of BMX expression level in human T24 cells at 0.5 uM incubated for 24 hrs by Western blotting analysis relative to control; assay type: functional, T-24
[11] = Antiproliferative activity against […] MB49 cells assessed as inhibition of cell proliferation measured after 72 hrs by MTT assay; assay type: functional, cell-based; details: MB49, 72 h
T-24 [12] = test: Induction in apoptosis in human T24 cells assessed as late apoptotic cells at 0.25 uM incubated for 48 hrs by Annexin V-FITC staining based flow cytometry analysis (reference value: 4.78 %); assay type: functional
T-24 [13] = test: Inhibition of cell migration in human T24 cells at 0.50 uM incubated for 12 hrs by scratch assay (reference value: 66 %); assay type: functional
T-24 [14] = test: Induction in apoptosis in human T24 cells assessed as early apoptotic cells at 0.25 uM incubated for 48 hrs by Annexin V-FITC staining based flow cytometry analysis (reference value: 3.64 %); assay type: functional
T-24 [15] = test: Induction of cell cycle arrest in human T24 cells assessed as accumulation of cells at S phase at 0.50 uM incubated for 24 hrs by RNase A/Propidium Iodide staining based flow cytometry analysis (reference value: 31.27 %); assay type: functional; details: dose 0.5 µM
[16] = Downregulation of p-STAT3 expression level in human T24 cells at 0.5 uM incubated for 24 hrs by Western blotting analysis relative to control; assay type: functional, T-24
[17] = Toxicity in male C57BL/6 mouse allografted with mouse MB49 cells assessed as tumor cell necrosis at 1 mg/kg,iv bid measured after 14 days by H and E staining based analysis; assay type: organism-based; details: in vivo, 336 h, time 14 day
[18] = Toxicity in male C57BL/6 mouse allografted with mouse MB49 cells assessed as body weight change at 1 mg/kg,iv bid measured after 14 days; assay type: organism-based; details: in vivo, 336 h, time 14 day
[19] = Clearance in Sprague-Dawley rat at 5 mg/kg, iv measured upto 24 hrs; assay type: ADME, organism-based; details: in vivo
[20] = MRT(0 to t) in Sprague-Dawley rat at 5 mg/kg, iv measured upto 24 hrs; assay type: ADME, organism-based; details: in vivo
T-24 [21] = test: Inhibition of colony formation in human T24 cells at 0.50 uM measured after 10 days by crystal violet staining based analysis relative to control; assay type: functional; details: T-24, 240 h, time 10 day
[22] = Antitumor activity against mouse MB49 cells implanted in male C57BL/6 mouse assessed as reduction in Ki67 expression level at 1 mg/kg,iv bid measured after 14 days by immunohistochemical analysis relative to control; assay type: functional; set-up: scale not given: the % may be the effect or the level left; details: time 14 day
HT-29 = test: Antiproliferative activity against human HT-29 cells assessed as inhibition of cell proliferation measured after 72 hrs by MTT assay; assay type: functional, cell-based; details: HT-29, 72 h
[23] = Antitumor activity against mouse MB49 cells implanted in male C57BL/6 mouse model assessed as reduction in tumor weight at 1 mg/kg,iv bid measured after 14 days relative to control; assay type: functional; set-up: scale not given: the % may be the effect or the level left; details: time 14 day
Bel-7402 = test: Antiproliferative activity against human Bel-7402 cells assessed as inhibition of cell proliferation measured after 72 hrs by MTT assay; assay type: functional, cell-based; details: Bel-7402, 72 h
[24] = Half life in Sprague-Dawley rat at 5 mg/kg, iv measured upto 24 hrs; assay type: ADME, organism-based; details: in vivo
[25] = Downregulation of AKT expression level in human T24 cells at 0.13 to 0.50 uM incubated for 24 hrs by Western blotting analysis relative to control; assay type: functional, T-24; details: dose 0.13-0.5 µM, at 0.13 to 0.5 µM
T24 = test: Inhibition of AKT phosphorylation in human T24 cells incubated for 24 hrs by Western blotting analysis; assay type: cell-based; details: dose 0.13-0.5 µM
T-24 [26] = test: Induction of cell cycle arrest in human T24 cells assessed as accumulation of cells at G2/M phase at 0.50 uM incubated for 24 hrs by RNase A/Propidium Iodide staining based flow cytometry analysis (reference value: 22.67 %); assay type: functional; details: dose 0.5 µM
T-24 [27] = test: Induction in apoptosis in human T24 cells assessed as viable cells at 0.5 uM incubated for 48 hrs by Annexin V-FITC staining based flow cytometry analysis (reference value: 90.44 %); assay type: functional; details: read-out: Activity
T-24 [28] = test: Induction of cell cycle arrest in human T24 cells assessed as accumulation of cells at G2/M phase at 0.25 uM incubated for 24 hrs by RNase A/Propidium Iodide staining based flow cytometry analysis (reference value: 22.67 %); assay type: functional
[29] = Solubility of the compound in aqueous saline; assay type: physicochemical

C[C@H]1CCC/C=C/[C@@H]2C[C@H](O)C[C@H]2[C@H](OC(=O)c2cccnc2)/C=C/C(=O)O1
Activity [1]: 53% | Activity [2]: 35% | wound closure at 0.25 µM (T-24 [3]): 26% | wound closure at 0.5 µM (T-24 [4]): 17% | solubility [5]: 5000 µg/mL (≈ 13 mM) | inhibition in vivo at 1 mg/kg [6]: 51% | viability at 0.13 µM (T-24 [7]): 89.2% | Activity (T-24 [8]): 48.88% | Activity [9]: Non-toxic | Activity [10]: 35% | IC50 [11]: 4770 nM | Activity (T-24 [12]): 23.01% | wound closure at 0.5 µM (T-24 [13]): 13% | Activity (T-24 [14]): 6.75% | Activity (T-24 [15]): 19.52% | Activity [16]: 55% | Activity [17]: Non-toxic | Activity [18]: Non-toxic | clearance [19]: 68 mL/min/kg | MRT last at 24 h [20]: 8.4 min | inhibition at 0.5 µM (T-24 [21]): 100% | Activity [22]: 56% | IC50 (HT-29): 410 nM | Activity [23]: 48% | IC50 (Bel-7402): 460 nM | half-life [24]: 21.6 min | Activity [25]: 62% | inhibition (T24): Dose-dependent-effect | Activity (T-24 [26]): 14.82% | viability at 0.5 µM (T-24 [27]): 65.6% | Activity (T-24 [28]): 19.43% | solubility [29]: < 1000 µg/mL
